From article PMC7056829, “Reversal Effect of ALK Inhibitor NVP-TAE684 on ABCG2-Overexpressing Cancer Cells” (Frontiers in Oncology, 2020) come the findings set out here.

The structures appear in SMILES notation.

For data set [1], the target named is T1, ABCG2 (Homo sapiens, UniProt Q9UNQ0).
T1 sequence (Q9UNQ0 1-655): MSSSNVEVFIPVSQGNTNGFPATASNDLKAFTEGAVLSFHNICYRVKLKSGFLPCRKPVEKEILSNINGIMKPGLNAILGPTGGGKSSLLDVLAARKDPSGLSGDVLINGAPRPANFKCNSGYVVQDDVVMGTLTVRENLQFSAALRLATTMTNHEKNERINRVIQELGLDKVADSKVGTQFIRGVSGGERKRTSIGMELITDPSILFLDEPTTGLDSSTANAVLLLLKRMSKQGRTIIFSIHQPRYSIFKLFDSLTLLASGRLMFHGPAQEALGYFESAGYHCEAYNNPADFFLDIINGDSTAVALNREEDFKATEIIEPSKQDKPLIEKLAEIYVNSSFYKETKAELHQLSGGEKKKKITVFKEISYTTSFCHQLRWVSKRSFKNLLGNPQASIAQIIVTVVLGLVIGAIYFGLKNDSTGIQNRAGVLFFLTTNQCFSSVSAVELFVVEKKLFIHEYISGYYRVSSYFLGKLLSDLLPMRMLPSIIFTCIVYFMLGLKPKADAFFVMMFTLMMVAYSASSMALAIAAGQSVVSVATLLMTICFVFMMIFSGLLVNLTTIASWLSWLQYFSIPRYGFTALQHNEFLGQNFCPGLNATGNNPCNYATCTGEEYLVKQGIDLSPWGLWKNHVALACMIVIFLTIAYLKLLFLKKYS

For data set [2], the target named is T1, ABCG2. Put plainly: ATPase stimulation in ABCG2-overexpressing membrane vesicles. The class given is biochemical. The arrangement: ABCG2 membrane vesicles that overexpressed ABCG2.

The term EC50 denotes the concentration at which the effect is half-maximal.

Take `O=C1c2c(O)ccc(O)c2C(=O)c2c(NCCNCCO)ccc(NCCNCCO)c21` [Mitoxantrone]: the “[3H]-mitoxantrone accumulation and efflux in NCI-H460/MX20 versus parental NCI-H” value in data set [1] was “NVP-TAE684 significantly reduced the extrusion of [^3H]-mitoxantrone in NCI-H460/MX20 cells”.
In turn, `COc1cc(N2CCC(N3CCN(C)CC3)CC2)ccc1Nc1ncc(Cl)c(Nc2ccccc2S(=O)(=O)C(C)C)n1` [NVP-TAE684] displayed a concentration giving a half-maximal response (EC50) in data set [2] of 91 nM.
